The record followed here is PMC12040169 (PLOS Biology, 2025).

The data set can be described thus: in vitro. The note with it: human, hela cells, % viability.

Molecules are shown by their SMILES.

Broadly, the viability is a read-out of living cells in per cent, often relative to untreated cells. `Cc1ccc(OCC(=O)NCC(c2cccs2)N2CCOCC2)cc1C` (centres unmarked) [CBK306143]: the viability at 28.5 h, 10 µM came to 93.3%. As to `Cc1c(Cl)cccc1NC(=S)N1CCC(C(N)=O)(N2CCCCC2)CC1` [CBK264900], the viability at 28.5 h, 10 µM amounted to 112%.

Take `COc1cccc(CN2CCC3(C2)c2[nH]c4ccccc4c2CCN3Cc2cccc(OC)c2)c1` (centres unmarked) [CBK059468]: the viability at 28.5 h, 10 µM is 90.5%. `Cn1c(=O)[nH]c2c(nc(-c3ccccc3)n2C)c1=O` [CBK287855]: the viability at 28.5 h, 10 µM is 78.2%. As for `O=C(c1ccccc1)N1CCN(c2ccc(-n3cccn3)nn2)CC1` [CBK287662], the viability at 28.5 h, 10 µM turned out to be 92.2%. Still for that read-out and setting: under `CCCCSc1nc(N)cc(N2CCC(C(=O)N3CCOCC3)CC2)n1` [CBK306619] stands 96.8%; under `CS(=O)(=O)c1ccc(-n2nnnc2CN2CCC3(CCCCC3)C2)cc1` [CBK306183], 91.1%. Take `O=C(O)CCN1C(=O)c2ccc(NC(=O)Cc3cccs3)cc2C1=O` [CBK268240]: the viability at 28.5 h, 10 µM is 95.9%.

With `O=C(NCC1CCCCC1)c1ccccc1-n1cccc1` [CBK149603], the viability at 28.5 h, 10 µM was determined as 91.7%. `CC(=O)NC[C@H]1CN(c2ccc3c(c2)CCN(C(=O)Oc2ccccc2)CC3)C(=O)O1` [CBK018498]: the viability at 28.5 h, 10 µM turned out to be 91.2%. As to `N=C(NC(=S)Nc1ccccc1)N1CCN(Cc2ccccc2)CC1` [CBK267878], the viability at 28.5 h, 10 µM was 106%.

Regarding `O=C(Cc1ccsc1)N1CCC2(CCN(Cc3ccccc3)CC2)C1` [CBK136742], the viability at 28.5 h, 10 µM is 89.8%. For `CCN(CC)C(=O)c1sccc1NS(=O)(=O)Cc1ccccc1` [CBK050393], the viability at 28.5 h, 10 µM is 106%. In the case of `COC(=O)c1c(NC(=S)NCCn2cc(Br)cn2)sc2c1CCC2` [CBK266905], the viability at 28.5 h, 10 µM is 98.2%. With `NC(=O)CSc1nnc(-c2ccncc2)[nH]1` [CBK026179], the viability at 28.5 h, 10 µM came to 107%.

As to `O=C(c1ccncc1)N1Cc2ccccc2C1` [CBK200316], the viability at 28.5 h, 10 µM is 103%. For the compound `NC(=O)NC(CC(=O)N1CCN(c2nccs2)CC1)c1cccc(Br)c1` (centres unmarked) [CBK304548], the viability at 28.5 h, 10 µM was found to be 90.6%.

Take `CC(C(=O)NCCn1nc(-c2ccco2)ccc1=O)c1ccccc1` (centres unmarked) [CBK283861]: the viability at 28.5 h, 10 µM stood at 93.6%.

For the compound `O=C(N/N=C/c1ccccc1O)c1cccc(C(=O)N/N=C/c2ccccc2O)n1` [CBK261459], the viability at 28.5 h, 10 µM turned out to be 111%. On to `Fc1ccc(Nc2cncc(-c3cccs3)n2)cc1Cl` [CBK065813], for which the viability at 28.5 h, 10 µM came to 94.3%. With `Cc1sc2nc(SCC(=O)NCCO)nc(N)c2c1C` [CBK264423], the viability at 28.5 h, 10 µM was 109%. As for `Cc1ccc2c(c1)cc(C)c1nn(CC(=O)NC3CC3)c(=O)n12` [CBK283873], the viability at 28.5 h, 10 µM is 99.2%. `CC(C)C(=O)Nc1cccc(C(=O)Nc2nnc(C(F)(F)F)s2)c1` [CBK073453]: the viability at 28.5 h, 10 µM worked out at 107%.

Regarding `COc1cccc(C2C(C(=O)c3ccc(Br)cc3)=C(O)C(=O)N2CCN2CCOCC2)c1OC` (centres unmarked) [CBK264855], the viability at 28.5 h, 10 µM came to 110%. On the same count and under the same terms, under `O=C(NC1CCCOC1)c1cnn(-c2ccc(F)cc2)c1` (centres unmarked) [CBK283248] stands 89.4%. The same measure, in the same setting: in the case of `CC(C)(C)OC(=O)NCc1ccc(-c2cc(N3CCN(C(=O)c4ccco4)CC3)ncn2)cc1` [CBK091107] it was 98.3%; in that of `Cc1ccc(C(=O)Cn2c3ccccc3n3ncnc23)cc1` [CBK263081], 99.6%.

In the case of `COc1ccccc1-c1ccc2c(c1)COC1(CCN(C)CC1)O2` [CBK061024], the viability at 28.5 h, 10 µM was 82.2%. Regarding `FC(F)(F)c1ccc(Sc2ccncc2)nc1` [CBK115217], the viability at 28.5 h, 10 µM came to 108%.

As to `O=C(Nc1cc(Cl)ccc1O)c1ccc(C(=O)Nc2cc(Cl)ccc2O)cc1` [CBK266784], the viability at 28.5 h, 10 µM came to 94.9%.

For the compound `CC(C)Cc1ccc(S(=O)(=O)Nc2ccc(C(=O)O)cc2)cc1` [CBK297930], the viability at 28.5 h, 10 µM amounted to 98.4%. Still for that read-out and setting: under `O=C(C1CCCCC1)N1CCC(n2c(=O)[nH]c3ccccc32)CC1` [CBK149703] stands 92.8%; under `O=[N+]([O-])c1ccc2c(c1)nnn2CN1CCCCC1` [CBK261663], 90.4%; under `CCn1c(=O)n(CC(=O)N2CCCCCC2)c2cccnc21` [CBK283942], 97.1%. `CCCCC(NS(=O)(=O)Cc1ccccc1)C(=O)O` (centres unmarked) [CBK286798]: the viability at 28.5 h, 10 µM came out at 91.1%. Regarding `O=C1NC(=O)C(CCc2ccccn2)(Cc2cccc(Cl)c2Cl)C(=O)N1c1ccc(Br)cc1` (centres unmarked) [CBK266359], the viability at 28.5 h, 10 µM (bulk resorufin, single well) was 94.2%. Take `CCOc1ccc(-c2nn(-c3ccccc3)cc2/C=C2\SC(=S)N(CC(=O)O)C2=O)cc1F` [CBK265647]: the viability at 28.5 h, 10 µM is 105%.

As for `COc1cccc(CNCCO)c1OCc1ccccc1F` [CBK266594C], the viability at 28.5 h, 10 µM was found to be 104%. Regarding `COC(=O)CC(NC(=O)c1cccc(NC(C)=O)c1)c1cccs1` (centres unmarked) [CBK304537], the viability at 28.5 h, 10 µM was 78%.

In the case of `CC1CCCCN1C(=O)c1cccc(Cn2cc(Br)c([N+](=O)[O-])n2)c1` (centres unmarked) [CBK058788], the viability at 28.5 h, 10 µM was 104%. Consider `Cc1nnc(CN(CC2CCCO2)C2CCC(C)CC2)o1` (centres unmarked) [CBK304824], for which the viability at 28.5 h, 10 µM is 94.7%. For the compound `CCOc1ccc2ccccc2c1CNCCSc1nnnn1C` [CBK270046C], the viability at 28.5 h, 10 µM came to 90.6%. Consider `O=C(c1cc[nH]c1)N1CCCC2(CCN(C(=O)c3ccoc3)C2)C1` (centres unmarked) [CBK131629], for which the viability at 28.5 h, 10 µM is 105%.

As to `Cc1cc(NS(=O)(=O)c2ccc(NC(=O)c3cc4ccccc4o3)cc2)no1` [CBK267597], the viability at 28.5 h, 10 µM was found to be 88%.

As for `O=C(COc1cccnc1)N1CCc2ccccc21` [CBK200268], the viability at 28.5 h, 10 µM amounted to 107%. Same read-out and setting: in the case of `COc1ccc(Cl)cc1NC(=O)CN(c1cc([N+](=O)[O-])ccc1C)S(C)(=O)=O` [CBK266394] it was 114%; in that of `COc1cc(OC)c(NC(=O)C(C)Oc2ccc(Br)cc2)cc1Cl` (centres unmarked) [CBK266791], 97%.

For `Cc1ccc(SC(C)C(=O)Nc2nc[nH]n2)cc1` (centres unmarked) [CBK268638], the viability at 28.5 h, 10 µM was 107%. For the compound `O=C(C1=C(O)C(=O)N(CCCN2CCOCC2)C1c1ccccn1)c1ccccc1` (centres unmarked) [CBK266604], the viability at 28.5 h, 10 µM stood at 93.4%. For the compound `O=C(N/N=C/c1c(Cl)cccc1Cl)c1cc(Br)ccc1O` [CBK262022], the viability at 28.5 h, 10 µM is 95.1%.

As for `Cc1ccc(NC(=O)CCSc2nnc3ccccn23)cc1` [CBK265563], the viability at 28.5 h, 10 µM is 93.7%. In the case of `O=C(O)CCN1CCN(S(=O)(=O)c2cccc([N+](=O)[O-])c2)CC1` [CBK268819], the viability at 28.5 h, 10 µM was 89.7%. In the case of `O=C(CSCc1ccc(Cl)c(Cl)c1)Nc1cccnc1` [CBK268542], the viability at 28.5 h, 10 µM was found to be 112%.

For `Cc1cccc(NC(=O)CC(C(=O)O)N2CCOCC2)c1` (centres unmarked) [CBK266925], the viability at 28.5 h, 10 µM stood at 96.3%. `CN1CCOc2cc(S(=O)(=O)Nc3cccc(-c4cnco4)c3)ccc21` [CBK067119]: the viability at 28.5 h, 10 µM came out at 82.9%. The same measure, in the same setting: in the case of `CCOC(=O)c1cccc(NS(=O)(=O)c2cccc3cccnc23)c1` [CBK034345] it was 57.2%; in that of `CS(=O)(=O)N1CCC(C(=O)NCCN2CCOCC2)CC1` [CBK270151], 100%. For the compound `CCc1n[nH]c(SCc2ccc(Br)cc2)n1` [CBK265221], the viability at 28.5 h, 10 µM was 90.9%. Consider `C=CCC1(CC=C)CCN1C(=O)Cc1c(C)nc(SC)[nH]c1=O` [CBK282661], for which the viability at 28.5 h, 10 µM was found to be 86.9%. As to `COc1ccc(C(=O)C2=C(O)C(=O)N(CCN3CCOCC3)C2c2ccc(Cl)cc2)cc1` (centres unmarked) [CBK264718], the viability at 28.5 h, 10 µM was determined as 103%. Take `Cc1ccc(C(=O)NCC(c2ccccc2Cl)N2CCOCC2)c(=O)[nH]1` (centres unmarked) [CBK305928]: the viability at 28.5 h, 10 µM stood at 99.3%.

With `N#Cc1cccc(NC(=O)c2cccs2)c1` [CBK066855], the viability at 28.5 h, 10 µM was 96.2%.

As for `COc1nccnc1OC1CCN(CCCO)CC1` [CBK084254], the viability at 28.5 h, 10 µM was 97.6%. As to `O=c1c(Cl)nc(Cl)c(C2CCCCC2)n1Cc1ccccc1` [CBK012671], the viability at 28.5 h, 10 µM came out at 87.6%.

With `COC(=O)c1ccccc1NC(=O)CSCc1ccc(Cl)cc1Cl` [CBK131712], the viability at 28.5 h, 10 µM was found to be 86.2%. For the compound `COC(=O)c1c(NC(=O)CC2NCCNC2=O)sc(C)c1C` (centres unmarked) [CBK269447], the viability at 28.5 h, 10 µM was determined as 92.1%. With `COCCN(C(=S)Nc1ccc(OC)cc1)C(C)c1cccnc1` (centres unmarked) [CBK294471], the viability at 28.5 h, 10 µM worked out at 83.7%.

For the compound `O=C(NCC1COc2ccccc2O1)c1ccc(-c2ccccc2)nc1NCCc1ccccn1` (centres unmarked) [CBK076554], the viability at 28.5 h, 10 µM was 95.9%. On to `CCOC(=O)C(NC(=O)CC)(Nc1cc(C)on1)C(F)(F)F` (centres unmarked) [CBK025721], for which the viability at 28.5 h, 10 µM was determined as 117%.

In the case of `CSc1ncccc1C(=O)NCc1ccc(NC(C)=O)cc1` [CBK305009], the viability at 28.5 h, 10 µM was 97%. In the case of `CCOc1ccc2cc(C3CC(c4ccccc4)=NN3C(=O)CCC(=O)O)c(Cl)nc2c1` (centres unmarked) [CBK296097], the viability at 28.5 h, 10 µM stood at 114%. In the case of `Fc1ccc(-c2cccc(Nc3ccc(Oc4ccccc4)cc3)n2)cc1Cl` [CBK037699], the viability at 28.5 h, 10 µM turned out to be 102%. On to `O=C1N[C@@H](Cc2ccc(F)cc2)C(=O)N2CCN(C(=O)N3CCOCC3)C[C@H]12` [CBK289603], for which the viability at 28.5 h, 10 µM is 109%. For the compound `Cc1ccccc1C(c1cnccn1)N(C)C(=O)C1CCN(S(=O)(=O)c2cn(C)cn2)CC1` (centres unmarked) [CBK060264], the viability at 28.5 h, 10 µM is 93.1%.

Turning to `CCOC(=O)CC(=O)CSc1nc(C)cc(-c2cccnc2)c1C#N` [CBK267460], the viability at 28.5 h, 10 µM amounted to 94%. Consider `CN1CCCc2ccc(S(=O)(=O)NCCc3cn4ccccc4n3)cc21` [CBK306170], for which the viability at 28.5 h, 10 µM worked out at 82.8%. On to `Cc1ccc(F)c(NS(=O)(=O)Cc2ccccc2)c1` [CBK038438], for which the viability at 28.5 h, 10 µM came to 111%.

As for `O=C1COc2ccccc2CCCC[C@@H]2CN(C(=O)CN3C(=O)CNC3=O)CC[C@H]2N1` [CBK292047], the viability at 28.5 h, 10 µM was 92.7%. With `O=c1c2ccccc2nc(COc2ccccc2)n1O` [CBK288482], the viability at 28.5 h, 10 µM was 108%. On the same count and under the same terms, under `CCCC1c2cccn2CCN1S(=O)(=O)c1ccc2[nH]c(=O)[nH]c(=O)c2c1` (centres unmarked) [CBK286388] stands 101%.
